The target of data set [1] is T1, PI3Kδ (recombinant GST-tagged PIK3CD co-expressed with PIK3R1, p85α) (Homo sapiens, UniProt O00329).
T1 construct: The protein is full length and co-expressed with untagged PIK3R1; GST; purchased Invitrogen PV5274
The experiment in a line: modified PIK3CD Adapta TR-FRET kinase assay (PI3Kδ inhibition). Format: biochemical. The note with it: 2 μM ATP, 50 μM PIP2, room temperature, 1 hour. The protocol: The activity of compounds as PI3Kδ inhibitors may be determined by a variety of methods, including in vitro and in vivo methods. The following in vitro assay measures a test compound's ability to inhibit PI3Kδ-mediated phosphorylation of PIP2 and ATP.
Recombinant GST-tagged PIK3CD is purchased from Invitrogen (Part Number: PV5274). The protein is full length and co-expressed with untagged PIK3R1, phosphoinositide-3-kinase regulatory subunit 1 (p85α). The protein is stored at −20° C. in 50 mM TRIS (pH 7.5), 150 mM NaCl, 0.5 mM EDTA, 0.02% Triton® X-100, 2 mM DTT, and 50% glycerol.
A modified PIK3CD Adapta® assay (Invitrogen, Carlsbad, Calif.) is used to measure PI3Kδ inhibition of the example compounds. The assay has two phases. In the first phase, kinase reaction components, which include the enzyme (PIK3CD), substrates (PIP2, ATP), test compound (inhibitor), and assay buffer are added to each well, and the reaction is allowed to incubate for a pre-determined period of time. After reaction, a detection solution composed of a Eu (europium)-labeled anti-ADP antibody, Alexa Fluor® 647-labeled ADP tracer, and EDTA (to stop the kinase reaction) is added to each assay well. In this second phase, ADP formed by the kinase reaction displaces the Alexa Fluor® 647-labeled ADP tracer from the antibody, resulting in a decrease in time-resolved fluorescence resonance energy transfer (TR-FRET) signal. In the presence of the inhibitor, the amount of ADP formed by the kinase reaction is reduced, and the resulting intact antibody-tracer interaction maintains a high TR-FRET signal.
The assay uses black Greiner® 384-well plates (784076). The reaction buffer contains 50 mM Hepes (pH 7.5), 3 mM MgCl2, 1 mM EGTA, 100 mM NaCl, 0.03% CHAPS; 2 mM DTT is added fresh prior to each experiment. Enzyme (4 μL, estimated 1.5 nM in buffer) is first added to the wells of the plate. Next, test compounds (2 μL) from a source plate (5% dilution plate) are introduced into the wells. The final DMSO concentration in each assay well is 1%. […] Other wells contain test compounds serially diluted across the plate 11 times for a total of 12 data points. The kinase reactions are carried out at room temperature and are initiated by the addition of 4 μL of solution containing 2 μM ATP and 50 μM PIP2. Each reaction is stopped after 1 hour±10 minutes via addition of […], which contains a final assay concentration of 3 nM Alexa Fluor® 647-labeled ADP tracer, 2 nM Eu-anti-ADP Antibody, and 10 mM EDTA. After allowing the solutions to equilibrate for 30±10 minutes, a PHERAstar plate reader is used to excite the Eu donor (at 337 nm) and to detect emission from the Alexa Fluor® 647 at 665 nm. This emission signal is referenced or “ratioed” to the emission from Eu at 620 nm. The emission ratio (665 nm/620 nm) from each well is collected and converted to percent conversion using a standard curve for the assay conditions: % conversion=B*(C+A−emission ratio)/(emission ratio−C), where “A” and “C” are the maximum and minimum values of the emission ratio obtained from the standard curve of emission ratio vs. % conversion (ATP-ADP); “B” is the emission ratio corresponding to the % conversion at the EC50 value for the ADP Tracer-Eu anti-ADP antibody complex. The percent inhibition for a given inhibitor concentration is computed from % conversion for the reaction and for the positive and negative controls. Corresponding IC50 values (molar concentration at 50% inhibition) are calculated by non-linear curve fitting of the compound concentrations and values of percent inhibition to the standard IC50 equation.
(In general: Time-resolved FRET reads energy transfer from a long-lived donor to a nearby acceptor.)

Data set [2] is described as follows: Thermodynamic solubility assay in JP2. The note with it: for solubility thermodynamic: JP2 (Japan Pharmacopoeia 2nd fluid for dissolution), 37 °C, pH 6.8, aqueous buffer, thermodynamic from solid.
Description: (§1) Testing media for both assays are prepared as follows: • JP1 (Japan Pharmacopoeia 1st fluid for dissolution): In a 1 L volumetric flask, dissolve 2.0 g sodium chloride in about 500 mL deionized water. Add 84 mL of 1M hydrochloric acid and dilute to volume with deionized water. Mix thoroughly. • JP2 (Japan Pharmacopoeia 2nd fluid for dissolution): In a 1 L volumetric flask dissolve 6.806 g of anhydrous potassium phosphate monobasic in about 500 mL of deionized water. Add 23.6 mL of 1M sodium hydroxide and dilute to volume with deionized water. Mix thoroughly. • GCDC (20-mM sodium glycochenodeoxycholate in JP2): In a 50 mL volumetric flask, dissolve 0.475 g of sodium glycochenodeoxycholate with ˜30 mL JP2. Dilute to volume with additional JP2. Mix thoroughly. • Other pH buffers between pH 2-6 can also be prepared as additional testing media.
(§2) About 3 mg of compound is weighed into an HPLC vial. Testing medium (0.5 mL) is then added to the compound vial. The vial is sealed with a screw-on cap and placed in an incubator set at 37° C. with orbital shaking at 150 RPM for overnight equilibration. At the end of equilibration, the final pH is measured, and whether the compound is totally dissolved (clear solution) or not (solid in vial) is recorded. Then the sample mixture is transferred to a centrifuge tube with filter insert (0.45 μm nylon filter) and centrifuge filtered. The filtrate is diluted appropriately (2 to 50× dilution) before HPLC analysis. A calibration standard is prepared by dissolving ˜5 mg of compound in diluent and q.s. to volume in a 20 mL volumetric flask. A separate QC standard is prepared at about the same concentration. The default diluent is 1:1 acetonitrile/water. Alternative diluents such as 1:1 DMA/water and other mixtures may also be used depending on the solubility behavior of the compound. The calibration response factor is calculated by dividing the standard peak area with standard concentration. The sample solubility in a test medium is calculated by dividing the sample peak area with the corresponding standard response factor and multiplied by sample dilution factor. The response factor from QC standard is also calculated and compared with calibration standard. If the response factors of the calibration and QC standard differ by more than 5%, new calibration and QC standards should be prepared and samples are reanalyzed with new standards.
For data set [3] the following is noted: pH 6.8.
Description: as §1, §2

As a reminder, the IC50 is the point on the concentration scale where inhibition reaches its midpoint. In general, thermodynamic solubility refers to solubility found after equilibrating the solid with the medium.

Converted amounts (≈) assume the structure as drawn. Like-named read-outs stand apart in the source and are kept apart here.

T1 sequence (O00329 whole entry): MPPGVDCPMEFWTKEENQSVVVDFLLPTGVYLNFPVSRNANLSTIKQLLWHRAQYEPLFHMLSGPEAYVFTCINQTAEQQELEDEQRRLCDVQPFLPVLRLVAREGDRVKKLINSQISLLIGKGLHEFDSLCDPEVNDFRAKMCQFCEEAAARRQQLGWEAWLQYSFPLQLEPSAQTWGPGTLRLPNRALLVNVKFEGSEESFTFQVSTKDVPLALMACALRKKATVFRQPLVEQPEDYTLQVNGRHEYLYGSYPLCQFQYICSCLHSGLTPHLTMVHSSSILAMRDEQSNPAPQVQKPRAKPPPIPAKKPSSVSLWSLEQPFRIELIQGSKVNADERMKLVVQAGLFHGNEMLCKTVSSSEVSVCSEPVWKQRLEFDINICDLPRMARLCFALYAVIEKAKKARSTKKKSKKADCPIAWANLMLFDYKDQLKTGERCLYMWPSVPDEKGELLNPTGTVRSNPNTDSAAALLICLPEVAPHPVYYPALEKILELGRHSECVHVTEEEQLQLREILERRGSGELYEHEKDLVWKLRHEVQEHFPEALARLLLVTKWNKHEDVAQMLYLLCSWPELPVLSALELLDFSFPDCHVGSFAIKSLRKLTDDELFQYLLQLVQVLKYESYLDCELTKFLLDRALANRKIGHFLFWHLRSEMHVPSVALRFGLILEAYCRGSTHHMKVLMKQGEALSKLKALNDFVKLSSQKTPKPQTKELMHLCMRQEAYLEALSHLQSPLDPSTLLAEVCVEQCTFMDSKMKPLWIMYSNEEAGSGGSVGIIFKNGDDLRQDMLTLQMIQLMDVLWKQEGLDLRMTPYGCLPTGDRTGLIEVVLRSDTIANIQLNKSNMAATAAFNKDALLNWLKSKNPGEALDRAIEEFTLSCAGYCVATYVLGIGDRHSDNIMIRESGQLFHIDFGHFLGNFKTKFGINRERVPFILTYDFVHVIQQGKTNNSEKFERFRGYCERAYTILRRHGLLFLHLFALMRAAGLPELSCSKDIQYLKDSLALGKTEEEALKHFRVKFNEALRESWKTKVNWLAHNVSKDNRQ
T1 sequence (P27986 whole entry partner): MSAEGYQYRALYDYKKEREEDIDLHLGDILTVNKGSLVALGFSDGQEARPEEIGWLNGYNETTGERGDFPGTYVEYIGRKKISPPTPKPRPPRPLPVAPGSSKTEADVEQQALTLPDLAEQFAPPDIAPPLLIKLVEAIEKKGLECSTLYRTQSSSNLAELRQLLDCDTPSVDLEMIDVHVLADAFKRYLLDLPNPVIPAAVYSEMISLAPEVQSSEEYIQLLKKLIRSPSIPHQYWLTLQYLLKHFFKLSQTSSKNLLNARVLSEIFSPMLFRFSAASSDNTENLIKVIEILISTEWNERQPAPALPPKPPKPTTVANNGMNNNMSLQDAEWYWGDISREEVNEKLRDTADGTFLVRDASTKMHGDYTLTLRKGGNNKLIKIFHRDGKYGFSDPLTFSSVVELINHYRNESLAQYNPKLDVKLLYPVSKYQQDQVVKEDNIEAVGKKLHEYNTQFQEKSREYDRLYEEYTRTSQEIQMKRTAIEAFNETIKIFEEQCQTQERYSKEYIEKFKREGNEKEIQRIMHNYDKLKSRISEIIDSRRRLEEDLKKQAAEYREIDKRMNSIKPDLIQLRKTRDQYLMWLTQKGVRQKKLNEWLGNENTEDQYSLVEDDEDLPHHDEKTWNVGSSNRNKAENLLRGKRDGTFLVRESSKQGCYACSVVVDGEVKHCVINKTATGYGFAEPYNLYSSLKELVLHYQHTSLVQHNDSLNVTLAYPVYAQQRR

`Cc1nc(N)nc(N[C@@H](C)c2nc3ccn(C)c3cc2N2CCCNCC2)c1C#N` [Example 2, (S)-4-(1-(6-(1,4-Diazepan-1-yl)-1-methyl-1H-pyrrolo[3,2-b]pyridin-5-yl)ethylamino)-2-amino-6-methylpyrimidine-5-carbonitrile]: the half-inhibitory concentration (IC50) in data set [1] is 5 nM.

On to `Cc1nc(N)nc(N[C@@H](C)c2nc3ccn(C)c3cc2NC2CCNCC2)c1C#N` [Example 15, (S)-2-Amino-4-methyl-6-((1-(1-methyl-6-(piperidin-4-ylamino)-1H-pyrrolo[3,2-b]pyridin-5-yl)ethyl)amino)pyrimidine-5-carbonitrile], for which the IC50 in data set [1] came to 5.5 nM.

For `Cc1nc(N)nc(N[C@@H](C)c2nc3ccn(C)c3cc2N2CC[C@H](N)C2)c1C#N` (single isomer, unassigned) [Example 8], the concentration for half-maximal inhibition (IC50) in data set [1] is 2.6 nM.

Regarding `CC[C@H](Nc1nc(N)nc(C)c1C#N)c1nc2ccn(C)c2cc1N1CCNCC1` [Example 19, (S)-2-Amino-4-methyl-6-((1-(1-methyl-6-(piperazin-1-yl)-1H-pyrrolo[3,2-b]pyridin-5-yl)propyl)amino)pyrimidine-5-carbonitrile], the half-inhibitory concentration (IC50) in data set [1] turned out to be 0.8 nM.

Regarding `C[C@H](Nc1nc(N)nc(N)c1C#N)c1nc2ccn(C)c2cc1C1CCOCC1` [A, reference compound], the solubility (thermodynamic) in data set [2] was found to be 20 µg/mL (≈ 51 µM).

Turning to “4-((S)-1-(6-((1S,4S)-2,5-Diazabicyclo[2.2.1]heptan-2-yl)-1-methyl-1H-pyrrolo[3,2-b]pyridin-5-yl)ethylamino)-2-amino-6-methylpyrimidine-5-carbonitrile [Example 14]”, in data set [3], the “Thermodynamic Solubility in JP2” value was above 1830 µg/mL. In addition, in data set [1], the concentration for half-maximal inhibition (IC50) is 0.6 nM.

With `CN[C@H]1CCN(c2cc3c(ccn3C)nc2[C@H](C)Nc2nc(N)nc(C)c2C#N)C1` [Example 3, 2-Amino-4-methyl-6-((S)-1-(1-methyl-6-((S)-3-(methylamino)pyrrolidin-1-yl)-1H-pyrrolo[3,2-b]pyridin-5-yl)ethylamino)pyrimidine-5-carbonitrile], the IC50 in data set [1] was found to be 5.6 nM.

With `Cc1nc(N)nc(N[C@@H](C)c2nc3ccn(C)c3cc2C2CCC(N)CC2)c1C#N` (mixture of isomers) [Example 18, (S)-2-Amino-4-((1-(6-(4-aminocyclohexyl)-1-methyl-1H-pyrrolo[3,2-b]pyridin-5-yl)ethyl)amino)-6-methylpyrimidine-5-carbonitrile], the concentration for half-maximal inhibition (IC50) in data set [1] worked out at 1.7 nM.

Regarding `Cc1nc(N)nc(N[C@@H](C)c2nc3ccn(C)c3cc2N(C)C2CNC2)c1C#N` [Example 16, (S)-2-Amino-4-((1-(6-(azetidin-3-yl(methyl)amino)-1-methyl-1H-pyrrolo[3,2-b]pyridin-5-yl)ethyl)amino)-6-methylpyrimidine-5-carbonitrile], the IC50 in data set [1] is 2.4 nM.

`Cc1nc(N)nc(N[C@@H](C)c2nc3ccn(C)c3cc2C2=CCC(N)CC2)c1C#N` (stereo partly drawn) [Example 17, 2-Amino-4-(((1S)-1-(6-(4-aminocyclohex-1-en-1-yl)-1-methyl-1H-pyrrolo[3,2-b]pyridin-5-yl)ethyl)amino)-6-methylpyrimidine-5-carbonitrile]: in data set [1], the IC50 turned out to be 8.5 nM.

Turning to “(S)-2-Amino-4-methyl-6-(1-(1-methyl-6-(piperazin-1-yl)-1H-pyrrolo[3,2-b]pyridin-5-yl)ethylamino)pyrimidine-5-carbonitrile [Example 1]”, the IC50 in data set [1] was 0.7 nM. Besides, in data set [2] (solid free base, JP2 (Japan Pharmacopoeia 2nd fluid), 37° C., overnight equilibration), the “Thermodynamic Solubility in JP2” value worked out at 2195 µg/mL.

Consider `Cc1nc(N)nc(N[C@@H](C)c2nc3ccn(C)c3cc2N2CC[C@@H](N)C2)c1C#N` (single isomer, unassigned) [Example 7], for which the IC50 in data set [1] came to 4.2 nM.

Regarding `Cc1nc(N)nc(N[C@@H](C)c2nc3ccn(C)c3cc2[C@H]2CCNC2)c1C#N` (single isomer, unassigned) [Example 11], the IC50 in data set [1] was 1.3 nM.

As to `C[C@H](Nc1nc(N)nc(N)c1C#N)c1nc2ccn(C)c2cc1N1CCOCC1` [B, reference compound], the thermodynamic solubility in data set [2] was 26 µg/mL (≈ 66.1 µM).

As to `C[C@H](Nc1nc(N)nc(N)c1C#N)c1nc2ccn(C)c2cc1N1CCNCC1` [Example 13, (S)-2,4-Diamino-6-(1-(1-methyl-6-(piperazin-1-yl)-1H-pyrrolo[3,2-b]pyridin-5-yl)ethylamino)pyrimidine-5-carbonitrile], the IC50 in data set [1] came out at 1 nM.

Consider `CCc1nc(N)nc(N[C@@H](C)c2nc3ccn(C)c3cc2N2CCNCC2)c1C#N` [Example 20, (S)-2-Amino-4-ethyl-6-((1-(1-methyl-6-(piperazin-1-yl)-1H-pyrrolo[3,2-b]pyridin-5-yl)ethyl)amino)pyrimidine-5-carbonitrile], for which the IC50 in data set [1] was 220 nM.

For the molecule `Cc1nc(N)nc(N[C@@H](C)c2nc3ccn(C)c3cc2N2CCN[C@H](C)C2)c1C#N` [Example 9, 2-Amino-4-methyl-6-((S)-1-(1-methyl-6-((R)-3-methylpiperazin-1-yl)-1H-pyrrolo[3,2-b]pyridin-5-yl)ethylamino)pyrimidine-5-carbonitrile], the IC50 in data set [1] stood at 2.2 nM.

As for `Cc1nc(N)nc(N[C@@H](C)c2nc3ccn(C)c3cc2[C@@H]2CCNC2)c1C#N` (single isomer, unassigned) [Example 10], the IC50 in data set [1] is 3.5 nM.

Take `Cc1nc(N)nc(N[C@@H](C)c2nc3ccn(C)c3cc2N2CCC[C@@H](N)C2)c1C#N` (single isomer, unassigned) [Example 4]: the IC50 in data set [1] is 2.9 nM.

Take `Cc1nc(N)nc(N[C@@H](C)c2nc3ccn(C)c3cc2N2CCN[C@@H](C)C2)c1C#N` [Example 6, 2-Amino-4-methyl-6-((S)-1-(1-methyl-6-((S)-3-methylpiperazin-1-yl)-1H-pyrrolo[3,2-b]pyridin-5-yl)ethylamino)pyrimidine-5-carbonitrile]: the 50% inhibitory concentration (IC50) in data set [1] stood at 5 nM. For the same molecule, in data set [2], the thermodynamic solubility came to 1730 µg/mL (≈ 4270 µM).

`Cc1nc(N)nc(N[C@@H](C)c2nc3ccn(C)c3cc2N2CCC[C@H](N)C2)c1C#N` (single isomer, unassigned) [Example 5]: the IC50 in data set [1] was determined as 5.4 nM.

As for `Cc1nc(N)nc(N[C@@H](C)c2nc3ccn(C)c3cc2C2CCNCC2)c1C#N` [Example 12, (S)-2-Amino-4-methyl-6-(1-(1-methyl-6-(piperidin-4-yl)-1H-pyrrolo[3,2-b]pyridin-5-yl)ethylamino)pyrimidine-5-carbonitrile], the half-maximal inhibitory concentration (IC50) in data set [1] came out at 1.4 nM. In addition, the thermodynamic solubility in data set [2] is 150 µg/mL (≈ 384 µM).

The record behind these values is US9371321B2, “Azaindole derivatives” (Takeda Pharmaceutical Company Limited, priority 2014, dated 2016).
